Source: PMC8422859, “A Novel Oral Arginase 1/2 Inhibitor Enhances the Antitumor Effect of PD-1 Inhibition in Murine Experimental Gliomas by Altering the Immunosuppressive Environment” (Frontiers in Oncology, 2021)

Legend:
[1] = system: CT26, LLC, B16, and 4T1 tumors; set-up: method as in PMID 29254508; details: B16, 4T1; cited from earlier work
T cell proliferation = system: T cell proliferation; set-up: method as in PMID 29254508; details: cited from earlier work
recombinant human ARG2 = biological target: T1, recombinant human ARG2 (Homo sapiens, UniProt P78540); assay: Recombinant arginase activity assay, hARG2; format: biochemical; details: 1 h at 37°C, pH 7.4, 10 mM L-arginine, urea detection; read-out: Inhibition of recombinant hARG2: IC50
T1 construct: made in house; host or cells: E. coli
T1 sequence (P78540 23-354): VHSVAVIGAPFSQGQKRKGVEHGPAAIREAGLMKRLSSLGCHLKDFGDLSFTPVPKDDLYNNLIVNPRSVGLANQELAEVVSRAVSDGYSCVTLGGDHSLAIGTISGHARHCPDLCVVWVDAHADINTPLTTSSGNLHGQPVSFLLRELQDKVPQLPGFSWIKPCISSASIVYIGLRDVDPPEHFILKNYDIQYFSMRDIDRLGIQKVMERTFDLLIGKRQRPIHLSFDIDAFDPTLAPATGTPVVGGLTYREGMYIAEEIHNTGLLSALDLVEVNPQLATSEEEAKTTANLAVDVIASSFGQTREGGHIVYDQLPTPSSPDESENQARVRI
Method: (§1) The inhibitory activity towards hARG1 and hARG2 enzymes was assessed using recombinant enzymes biosynthesized using a prokaryotic expression system (E. coli) and purified by fast protein liquid chromatography (FPLC). Briefly, recombinant enzymes were incubated with the tested compounds for 1 h at 37°C in the reaction buffer (100 mM sodium phosphate buffer, 130 mM NaCl, 1 mg/mL BSA, pH 7.4) containing substrate (10 mM L-arginine hydrochloride) and cofactor (200 µM MnCl2). The assay is based on the detection of urea, which is generated during the conversion of L-arginine into L-ornithine catalyzed by arginases. To visualize the product, we adding a mixture of reagent A (4 mM oPA, 50 mM boric acid, 1 M sulfuric acid, 0.03% Brij-35) and reagent B (4 mM NED, 50 mM boric acid, 1 M sulfuric acid, 0.03% Brij-35) in equal proportions. The absorbance was measured at 515 nm. The urea production in the absence of any tested compound was considered as maximal enzyme activity. The absorbance in the absence of arginase (background) was considered as zero activity. Two reference compounds OAT-81 (ABH, no. 222638-65-5) and OAT-90 (2-amino-6-borono-2-(2-(3-(2,4-dichlorophenyl)propyloamino)ethyl) hexanoic acid, and two novel inhibitors OAT-1617 and OAT-1746 (the last three synthesized at OncoArendi Therapeutics) were tested. Normalized values were analyzed using GraphPad Prism 7.0 software and the IC50 values were determined.

recombinant human ARG1 = biological target: T2, recombinant human ARG1 (Homo sapiens, UniProt P05089); assay: Recombinant arginase activity assay, hARG1; format: biochemical; details: 1 h at 37°C, pH 7.4, 10 mM L-arginine, urea detection; read-out: Inhibition of recombinant hARG1: IC50
T2 construct: made in house; host or cells: E. coli
T2 sequence (P05089 1-322): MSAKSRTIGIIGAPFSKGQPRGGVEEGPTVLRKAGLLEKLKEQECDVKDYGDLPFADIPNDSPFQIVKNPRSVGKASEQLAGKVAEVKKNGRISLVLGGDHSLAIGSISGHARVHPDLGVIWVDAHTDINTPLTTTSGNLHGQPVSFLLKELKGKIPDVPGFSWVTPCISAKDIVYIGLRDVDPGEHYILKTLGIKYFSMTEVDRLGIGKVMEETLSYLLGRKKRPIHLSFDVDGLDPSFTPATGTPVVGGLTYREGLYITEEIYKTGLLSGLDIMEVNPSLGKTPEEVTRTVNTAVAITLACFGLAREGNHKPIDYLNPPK
Method: as §1

LN18 glioma cells = assay: Matrigel invasion assay, LN18 co-cultured with BV2 microglia; format: cell-based, human; details: 11 µM, co-culture with BV2, 18 h
Method: BV2 cells were plated onto a 24-well plate at the density of 4×10^4. After 24 h, the invasion assay was performed with tissue culture inserts (6.5 mm Transwell® with 8.0 µm Pore Polycarbonate Membrane Insert, Corning, NY, USA) coated with the Growth Factor Reduced Matrigel™ Matrix (BD Biosciences, San Diego. CA, USA). The Matrigel™ Matrix (50 µL of 1 mg/mL stock solution diluted in fresh DMEM) was dried under sterile conditions (37°C) for 5–6 h. The medium in BV2 cultures was replaced with fresh one 1 h before seeding glioblastoma cells onto the inserts, then LN18 and U87 glioblastoma cells were seeded at 2×10^4/insert on Matrigel-covered membranes in a serum-reduced medium (2% FBS). Untreated glioblastoma cells co-cultured with or without BV2 cells served as positive and negative controls, respectively. Cells were treated with the arginase-1 inhibitors OAT-90, OAT-1617 and OAT-1746 solved in PBS. The cultures were kept in incubator at 37°C with humidified air containing 5% CO2. […] The membranes from Transwell® inserts were cut out and images were acquired using a fluorescence microscope (Leica DM4000B, 10x lens) from the 5 independent fields (bottom; top; left; right side and the middle). Numbers of invading cells were counted using the ImageJ software (NIH, Bethesda, MD, USA). […]

U87-MG glioma cells = assay: Matrigel invasion assay, U87-MG co-cultured with BV2 microglia; format: cell-based, human
Method: BV2 cells were plated onto a 24-well plate at the density of 4×10^4. After 24 h, the invasion assay was performed with tissue culture inserts (6.5 mm Transwell® with 8.0 µm Pore Polycarbonate Membrane Insert, Corning, NY, USA) coated with the Growth Factor Reduced Matrigel™ Matrix (BD Biosciences, San Diego. CA, USA). The Matrigel™ Matrix (50 µL of 1 mg/mL stock solution diluted in fresh DMEM) was dried under sterile conditions (37°C) for 5–6 h. The medium in BV2 cultures was replaced with fresh one 1 h before seeding glioblastoma cells onto the inserts, then LN18 and U87 glioblastoma cells were seeded at 2×10^4/insert on Matrigel-covered membranes in a serum-reduced medium (2% FBS). Untreated glioblastoma cells co-cultured with or without BV2 cells served as positive and negative controls, respectively. Cells were treated with the arginase-1 inhibitors OAT-90, OAT-1617 and OAT-1746 solved in PBS. The cultures were kept in incubator at 37°C with humidified air containing 5% CO2. After 18 h cells were fixed in ice-cold methanol and cell nuclei stained with DAPI (4′,6-Diamidino-2-Phenylindole; 1 µg/mL, Sigma). The membranes from Transwell® inserts were cut out and images were acquired using a fluorescence microscope (Leica DM4000B, 10x lens) from the 5 independent fields (bottom; top; left; right side and the middle). Numbers of invading cells were counted using the ImageJ software (NIH, Bethesda, MD, USA). All experiments were performed three times, in duplicates.

Row | Compound | tumor growth in mouse models of non-CNS tumors [1] | myeloid cell-mediated suppression of T cell proliferation in vitro (T cell proliferation) | IC50 (recombinant human ARG2) | IC50 (recombinant human ARG1) | microglia-induced invasion of LN18 cells (LN18 glioma cells) | microglia-induced invasion of U87-MG cells (U87-MG glioma cells; 11 µM, co-culture with BV2, 18 h) | concentration dependence of the inhibitory effect on glioma invasion (U87-MG glioma cells; 0.1 and 11 µM, U87-MG with BV2)
1 | C[C@H](N)C(=O)N1C[C@H](CCCB(O)O)[C@](N)(C(=O)O)C1 [CB-1158] | reduced tumor growth | blocked | – | – | – | – | –
2 | NC(CCCCB(O)O)(CCNCCCc1ccc(Cl)cc1Cl)C(=O)O (stereo not drawn) [OAT-90, 2-amino-6-borono-2-(2-(3-(2,4-dichlorophenyl)propyloamino)ethyl) hexanoic acid, reference compound] | – | – | 796 nM | 151 nM | effectively reduced glioma invasion | effectively reduced glioma invasion | this dependence was not observed
3 | N[C@@H](CCCCB(O)O)C(=O)O [Ref.comp. 1, ABH] | – | – | 2670 nM | 1080 nM | – | – | –
